In one data set the test system is Maver-1 xenograft model. Nature of the data set: 21 day mantle cell lymphoma xenograft study: TGI and tumor methyl mark. The class given is in vivo. Particulars: all doses tested, day 21. As for the experimental part:
(§1) Data presented in this example were determined after analysis of 21 day samples of mantle cell lymphoma tumors. Cmin PK samples were taken prior to the last dose on day 21. Tumors were excised, weighed and processed for methyl mark. Methyl mark reduction was measured in tumor samples and is shown as percent of vehicle control (POC). Both SYM11 and sDMA Elisa were used to measure methyl mark and the data shown is averaged from 10 animals. Tumor growth inhibition was determined using tumor volume reduction at day 21 expressed as a percent of POC. In vivo inhibition curves were also generated and IC50 values determined. Plasma levels from each group are averaged from 5 animals. […] The average body weight loss (BWL) in all groups was <6%. All doses tested show >50% TGI. […] The average BWL in all groups was <4%. The average BWL in all groups was <8%, except in the 100 mg/kg does group were 4 animals exceeded BWL of 15%.

The test system of a further data set is Z-138 xenograft model. The description is as above. Format: in vivo. Particulars: Z-138 xenograft; all doses tested; day 21. How it is done:
as §1, with “Both SYM11 and sDMA Elisa were used to measure methyl mark and the data shown is averaged from 10 animals.” left out

Another data set deals with Maver-1. Nature of the data set: Long-term proliferation (LTP) assay. The class given is cell-based. The settings on record: Homo sapiens, Maver1, Table 3, read-out: LTP IC50.
Data set [1] concerns sDMA methylation in Mino cells. Kind of data set: sDMA western blot, 10 kDa band to total SmD3. Format: cell-based. The settings on record: Homo sapiens, Table 3, read-out: sDMA Western IC50. How it is done: (§2) The measurement of the 10 kDa band was used to calculate the methylation IC50 values. […] Concentration-dependent decreases in the 10 kDa band were observed on day 4 in all cell lines tested with representative western blots shown for Z-138 and Maver-1 cell lines (FIG. 1). Levels of the 10 kDa band from the western blots were quantified by densitometry and ratios of 10 kDa band (postulated to be SmD3me2s) to total SmD3 were calculated to determine the IC50s (Table 2, n=1 for all samples).
(In general: Immunoblotting shows a protein as a band on a membrane.)

Data set [2] deals with sDMA methylation in Maver-1 cells. Kind of data set: sDMA western blot, 10 kDa band to total SmD3. Format: cell-based. The settings on record: Homo sapiens, Maver1, Table 3, read-out: sDMA Western IC50. As for the experimental part:
as §2

Data set [3] has as its system sDMA methylation in Granta-519 cells. Nature of the data set: sDMA western blot, 10 kDa band to total SmD3. The settings on record: Homo sapiens, Table 3, read-out: sDMA Western IC50. The class given is cell-based. How it is done:
as §2

Data set [4] concerns sDMA methylation in Z-138 cells. Kind of data set: sDMA western blot, 10 kDa band to total SmD3. The class given is cell-based. Particulars: Homo sapiens, Table 3, read-out: sDMA Western IC50. As for the experimental part: as §2
The test system of data set [5] is sDMA methylation in Jeko-1 cells. Nature of the data set: sDMA western blot, 10 kDa band to total SmD3. The class given is cell-based. The settings on record: Homo sapiens, Table 3, read-out: sDMA Western IC50. As for the experimental part: as §2
The next data set has as its system Jeko-1. Kind of data set: Long-term proliferation (LTP) assay. The class given is cell-based. Particulars: Homo sapiens, Table 3, read-out: LTP IC50.
The test system of the next data set is Maver-1 cells. Kind of data set: Annexin-V staining (apoptosis). The settings on record: after 4 days of treatment. The class given is cell-based, Human. As for the experimental part:
(§3) The mechanism of cell killing was evaluated in the MCL cell lines, Z-138 and Mayer-1. Cells were treated at various time points with 2 nM, 20 nM, and 200 nM of Formula B. Apoptosis was assessed by measuring the percentage of Annexin-V positive cells and the assay was performed in triplicate.

The test system of another data set is Z-138 cells. Kind of data set: Annexin-V staining (apoptosis). Format: cell-based, Human. The settings on record: 200 nM. As for the experimental part:
as §3

The test system of the next data set is Mino. Kind of data set: Long-term proliferation (LTP) assay. Format: cell-based. The settings on record: Homo sapiens, Table 3, read-out: LTP IC50.
The nature of data set [6]: Body weight loss in Z-138 xenograft study. The class given is in vivo. As for the experimental part: as §1
A further data set has as its system Granta-519. Nature of the data set: Long-term proliferation (LTP) assay. The class given is cell-based. Particulars: Homo sapiens, Table 3, read-out: LTP IC50.
A further data set deals with Z-138. Nature of the data set: Long-term proliferation (LTP) assay. Format: cell-based. Particulars: Homo sapiens, Table 3, read-out: LTP IC50. As for the experimental part: FIG. 4 illustrates a representative sample of a long-term proliferation assay performed in the mantle cell lymphoma cell line Z-138. Assays were performed in technical triplicates, reading cell viability over 14 days. Growth curves (top panel) were calculated in Excel. IC50 (bottom panel) and IC90 (not shown) values were calculated in GraphPad Prism using a non-linear regression analysis, fixing the top and bottom of the curves to 100 and 0%, respectively. The IC50 values in the Table are indicated in microM. [table]

In another data set the test system is Miapaca-2. Kind of data set: Foci formation and cellular morphology. The class given is cell-based. As for the experimental part: (§4) FIG. 18 illustrates the effect of foci formation and cellular morphology in pancreatic cancer cell lines (Miapaca-2, Panc-1). The effects of treatment with Formula D on pancreatic cancer cell morphology was also tested.
A further data set relates to Panc-1. Nature of the data set: Foci formation and cellular morphology. The class given is cell-based. How it is done:
as §4

The next data set has as its system Panc-1 cells. Kind of data set: 2D-proliferation assay. The class given is cell-based. The settings on record: Homo sapiens. How it is done: (§5) Calculation of growth inhibitory concentrations (g IC50) at Days 4, 6 and 13 treated with Formula D. 2D-proliferation assays were also performed on pancreatic cell lines treated with Formula D. Treatment of both Miapaca-2 and Panc-1 cells with Formula D results in a decrease in cell proliferation, as shown in FIG. 19.

Another data set concerns MiaPaca-2 cells. Kind of data set: 2D-proliferation assay. The class given is cell-based. The settings on record: Homo sapiens. As for the experimental part: as §5

This note sets out measurements from patent US10653693B2, “PRMT5 inhibitors and uses thereof” (Epizyme, Inc., priority 2014, dated 2020).

Read-outs that look alike come from different tables or passages of the source.

Take `CC(=O)N1CCC(Nc2cc(C(=O)NC[C@H](O)CN3CCc4ccccc4C3)ncn2)CC1` [Formula A]: the “Tumor growth inhibition (TGI)” value in the data set with Maver-1 xenograft model and in the data set on Z-138 xenograft model was greater than 50% in each case. For the same molecule, the IC50 was found to be 32 nM with Maver-1; 7 nM in data set [1]; 0.3 nM in data set [2]; 2 nM in data set [3]; 14 nM in data set [4]; 8.7 nM in [5]. The IC50 in the data set with Jeko-1 amounted to 11.3 nM; with Mino it was 106 nM; in the data set on Granta-519 it was 4.7 nM; in the data set on Z-138, 5.7 nM. For the same molecule, the “cells stained positive for Annexin-V” value with Maver-1 cells is on record as 8%. Further, the “increase in Annexin-V positive cells” value amounted to 12% with Z-138 cells (after 4 days) and 40% in the data set with Z-138 cells (after 6 days). Moreover, the “body weight loss (BWL) exceeded by 4 animals” value in data set [6] (100 mg/kg dose group) is on record as greater than 15%. Further, the “average body weight loss (BWL) in all groups” value in data set [6] (21 days) is less than 8%.
As for `O=C(COc1cccc2cccnc12)NC[C@@H](O)CN1CCc2ccccc2C1` [Formula D], the “effect on pancreatic cancer cell morphology / growth” value with Miapaca-2 and in the data set with Panc-1 was “inhibition of cancer cell growth” each time. In addition, the IC50 worked out at 1990 nM in the data set on Panc-1 cells (96 h, Day 4, read-out: growth inhibitory concentration (gIC50)); 1240 nM with Panc-1 cells (144 h, Day 6, read-out: growth inhibitory concentration (gIC50)); 3900 nM in the data set on Panc-1 cells (312 h, Day 13, read-out: growth inhibitory concentration (gIC50)); 349 nM with MiaPaca-2 cells (MIA PaCa-2, 96 h, Day 4, read-out: growth inhibitory concentration (gIC50)); 269 nM in the data set on MiaPaca-2 cells (MIA PaCa-2, 144 h, Day 6, read-out: growth inhibitory concentration (gIC50)); 929 nM with MiaPaca-2 cells (MIA PaCa-2, 312 h, Day 13, read-out: growth inhibitory concentration (gIC50)).
